Experimental data from patent publication US20080025916A1, “Tailored Treatment Suitable for Different Forms of Mastocytosis” (AB Science, priority 2003, published 2008).

Assays:
c-kit wild = c-kit wild (Homo sapiens, UniProt P10721); details: shown in WO 02/080925; cited from earlier work
[1] = test system: mouse bone marrow-derived mast cell line (BMMC) expressing the mutant D816V form of the human c-kit; assay: proliferation of BMMC line, viable cell count by trypan blue exclusion assay; assay type: cell-based; details: 24, 48 and 72 hours
Description: (§1) At 24, 48 and 72 hours, the number of viable cells was determined in each condition using the trypan blue exclusion assay.

[2] = test system: juxtamembrane mutated c-kit; details: shown in WO 02/080925; cited from earlier work
[3] = biological target: 816 mutated c-kit (D816V mutant form of the human c-kit receptor) (Homo sapiens, UniProt P10721, D816V)
816 mutated c-kit (D816V mutant form of the human c-kit receptor), sequence (P10721 26-976 D816V): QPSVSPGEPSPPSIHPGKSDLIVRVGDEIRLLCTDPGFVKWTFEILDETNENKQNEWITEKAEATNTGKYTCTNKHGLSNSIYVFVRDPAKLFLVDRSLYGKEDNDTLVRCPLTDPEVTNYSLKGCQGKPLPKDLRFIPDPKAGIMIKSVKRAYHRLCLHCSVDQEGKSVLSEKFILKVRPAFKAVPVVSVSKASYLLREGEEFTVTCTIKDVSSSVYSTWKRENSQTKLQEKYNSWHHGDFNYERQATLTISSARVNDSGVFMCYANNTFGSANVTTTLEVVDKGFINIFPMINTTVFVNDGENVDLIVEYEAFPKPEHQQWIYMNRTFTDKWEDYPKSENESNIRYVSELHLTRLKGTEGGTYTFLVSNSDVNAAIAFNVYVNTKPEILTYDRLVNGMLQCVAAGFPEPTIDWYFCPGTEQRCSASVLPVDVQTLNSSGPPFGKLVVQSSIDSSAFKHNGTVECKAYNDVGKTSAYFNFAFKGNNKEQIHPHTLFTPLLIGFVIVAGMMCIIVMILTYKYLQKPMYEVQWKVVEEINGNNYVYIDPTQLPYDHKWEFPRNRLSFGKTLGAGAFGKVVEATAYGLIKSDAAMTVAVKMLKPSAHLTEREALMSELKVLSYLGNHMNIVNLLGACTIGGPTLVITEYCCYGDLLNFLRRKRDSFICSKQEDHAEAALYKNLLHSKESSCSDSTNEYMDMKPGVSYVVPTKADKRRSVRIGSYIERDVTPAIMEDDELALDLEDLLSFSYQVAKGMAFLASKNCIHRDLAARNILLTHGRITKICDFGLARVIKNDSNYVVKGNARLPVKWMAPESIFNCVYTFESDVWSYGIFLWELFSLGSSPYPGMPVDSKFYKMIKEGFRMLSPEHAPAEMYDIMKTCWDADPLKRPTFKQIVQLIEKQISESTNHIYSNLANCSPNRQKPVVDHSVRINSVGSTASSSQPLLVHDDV
Description: as §1

[4] = test system: lymphoid BaF/3 murine cell line transfected with the D816V mutant form of the human c-kit; assay: proliferation of BaF/3 cells transfected with D816V c-kit; assay type: cell-based; details: not affected up to 1 microM, inhibited above 1 microM as in BMMC
Description: as §1

c-kit wild, sequence (P10721 26-976): as the sequence (P10721 26-976 D816V) above, with V791D counted along it

Question: Which “activity on c-kit wild” value (c-kit wild) does the source give for Cc1ccc(NC(=O)c2ccc(CN3CCN(C)CC3)cc2)cc1Nc1nccc(-c2cccnc2)n1 [STI571] here?
Answer: active

Question: What about the “proliferation of the BMMC line with the mutant D816V form of the human c-kit” value ([1]; STI-571 under or equal to 1 microM, FIG. 2) of the same molecule?
Answer: not affected

Question: What about the “proliferation of the BMMC line with the mutant D816V form of the human c-kit” value ([1]; concentrations of STI-571 above 1 microM (up to 10^-5 M)) of the same molecule?
Answer: dose- and time-dependently inhibited

Question: What about the “activity on the juxtamembrane mutated c-kit” value [2] of the same molecule?
Answer: very active

Question: What about the “resistance of the D816V mutant form of the human c-kit receptor” value ([3]; pharmacological doses) of the same molecule?
Answer: resistant

Question: And the “activity on 816 mutated c-kit” value ([3]; see FIGS. 1 and 2)?
Answer: not active

Question: What about the “proliferation of BaF/3 cells with D816V human c-kit (same result as BMMC)” value [4] of the same molecule?
Answer: also observed
